Assay results reported in patent publication US10407414B2, “Mannose derivatives for treating bacterial infections” (priority 2015, dated 2019).

Tested on: bacterial strain LF82 binding to the glycoprotein BSA-(Mannose)3 (FimH antagonists)
Test: Bacterial Binding Assay (BBA)
Format: cell-based, Escherichia coli
Details: read-out: Bacterial Binding Assay IC50 ± SEM
From the text: The purpose of the Bacterial Binding Assay (BBA) is to determine the inhibition activity of selective FimH antagonists on the bacterial strain LF82 binding to the glycoprotein BSA-(Mannose)3.
Below is a list of the Materials used to run the BBA are described below. • 1. LB broth: Supplier: Gibco, #10855 • 2. D-PBS: Supplier: Wisent, #311-425-CL • 3. LB agar plates • 4. 96-well black plate (high binding): Supplier: Costar, #3925 • 5. TopSeal™-A adhesive sealing films; Supplier PerkinElmer, #6005185 • 6. Carbonate-bicarbonate buffer pH 9.6 tablets, Supplier: Medicago, #09-8922-24 • 7. Water, Supplier: Gibco, #15230-162 • 8. Bovine serum albumin (BSA): Supplier: Sigma, #A-7888 • 9. (Man)3-BSA (α1-3, α1-6 Mannotriose-BSA, 1 mg), V-Labs, #NGP1336, lot# HGDX37-169-1 • 10. Tween 20: Supplier: Sigma, #P9416 • 11. Bright-Glo Luciferase Assay System: Supplier: Promega, #E2610 • 12. LF82/Luciferase strain: Invasive ability of an Escherichia coli strain isolated from the ileal mucosa of a patient with Crohn's disease. Boudeau J, Glasser A L, Masseret E, Joly B, Darfeuille-Michaud A, Infect Immun. 1999, 67(9), 4499-509
Solutions and buffers used to run the BBA are described below. • 1. 0.04M carbonate-bicarbonate buffer (coating buffer) • 2. 40 μg/mL BSA-(Man)3: Dissolve 1 mg of (Man)3-BSA in 25 mL of water. • 3. 4000 μg/mL BSA • 4. 40 μg/mL BSA • 5. 1 μg/mL BSA-(Man)3: 150 μL of 40 μg/mL BSA-(Man)3+5.85 mL of 40 μg/mL BSA • 6. 0.5 μg/mL BSA-(Man)3 in 0.02M carbonate-bicarbonate buffer. • 7. 20 μg/mL BSA in 0.02M carbonate-bicarbonate buffer • 8. Blocking buffer (2% BSA/DPBS): 1 g of BSA in 50 mL D-PBS • 9. 2× binding buffer (0.2% BSA/D-PBS): 5 mL of blocking buffer+45 mL D-PBS. • 10. Washing buffer (D-PBS/0.01% Tween 20): 10 μL of Tween 20 in 100 mL D-PBS. • 11. 1× Bright-Glo Luciferase substrate: Dilute 1:1 the Bright-Glo Luciferase Assay System with D-PBS
The experimental protocol used in this example to run the BBA is described below.
Overnight culture of LF82/Luciferase strain: Into two Falcon 50 mL tubes, add 20 mL of LB+20 μL of 50 mg/mL Kanamycin and inoculate with a loop from glycerol stock of the LF82/Luciferase strain. Incubate overnight at 37° C. with no shaking.
Glycoprotein coating of 96-well plates: Add 100 μL/well of 0.5-2 μg/mL BSA-(Man)3. 20 μg/mL BSA is used as the control background. Seal plate using an adhesive sealing film and incubate overnight at room temperature. Wash the 96-well plate three times with 150 μL/well of D-PBS, add 170 μL/well of blocking solution and incubate 45 min (minimum) at room temperature.
Preparation of bacterial suspension: Mix the two cultures tubes (40 mL) and perform a 1:10 dilution in LB (900 μl LB+100 μl culture. Measure optical density (OD) of the bacterial cultures. OD1 ˜5×10^8 cells/mL. Centrifuge LF82 culture for 20 min at 3500 rpm at room temperature. Re-suspend bacterial pellet in D-PBS and centrifuge again for 20 min at 3500 rpm. Re-suspend bacterial pellet in D-PBS to obtain a bacterial concentration of 2×10^9 bacteria/mL. Dilute 1/10 in D-PBS to obtain a final bacterial concentration of 2×10^8 bacteria/mL (=107 bacteria/50 μL). Perform 1/10 serial dilutions in LB of each bacterial suspension, plate 10 μL of dilutions on LB agar plates (final dilutions of 10^−7) and incubate overnight at 37° C. and count CFUs to determine the actual bacteria density in the assay.
Bacterial binding assay: Add 147 μL 2× binding buffer to compound plate (containing 3 μL of compound). After blocking step is performed (at least 45 min), wash plates three times with 200 μL/well of D-PBS. With a 100 μL multichannel manual pipettor, add 50 μL/well of compound diluted in 2× binding buffer. With a 100 μL multichannel manual pipettor, add 50 μL/well of bacterial suspension. Agitate at slow speed for 1 min and incubate 40-75 min at room temperature. Wash 5 times with 150 μL/well of washing buffer and then once with D-PBS. Add 100 μL/well of 1× Bright-Glo Luciferase substrate. […]

Compound | IC50
CCN(CC)S(=O)(=O)c1ccc(C)c(-c2cc(C#C[C@H]3O[C@H](CO)[C@@H](O)[C@H](O)[C@@H]3O)c3[nH]ncc3c2)c1 [Compound 93, N,N-diethyl-4-methyl-3-[7-[2-[(2R,3S,4R,5S,6R)-3,4,5-trihydroxy-6-(hydroxymethyl)tetrahydropyran-2-yl]ethynyl]-1H-indazol-5-yl]benzenesulfonamide] | 1 nM
Cc1nnc(-c2ccc(-c3cc(C#C[C@H]4O[C@H](CO)[C@@H](O)[C@H](O)[C@@H]4O)c4[nH]ncc4c3)cc2)o1 [Compound 39, (2R,3S,4R,5S,6R)-2-(hydroxymethyl)-6-[2-[5-[4-(5-methyl-1,3,4-oxadiazol-2-yl)phenyl]-1H-indazol-7-yl]ethynyl]tetrahydropyran-3,4,5-triol] | 0.2 ± 0.05 nM
COc1ccc(Cn2cc3cc(Br)cc(C#C[C@H]4O[C@H](CO)[C@@H](O)[C@H](O)[C@@H]4O)c3n2)cc1 [Compound 17, (2R,3S,4R,5S,6R)-2-[2-[5-bromo-2-[(4-methoxyphenyl)methyl]indazol-7-yl]ethynyl]-6-(hydroxymethyl)tetrahydropyran-3,4,5-triol] | 46 ± 14 nM
OC[C@H]1O[C@H](C#Cc2cc(Cl)cc3cn[nH]c23)[C@@H](O)[C@@H](O)[C@@H]1O [Compound 6, (2R,3S,4R,5S,6R)-2-[2-(5-chloro-1H-indazol-7-yl)ethynyl]-6-(hydroxymethyl)tetrahydropyran-3,4,5-triol] | 24 ± 5 nM
O=C(NC1CCCC1)c1cc(C#C[C@H]2O[C@H](CO)[C@@H](O)[C@H](O)[C@@H]2O)c2[nH]ncc2c1 [Compound 64, N-cyclopentyl-7-[2-[(2R,3S,4R,5S,6R)-3,4,5-trihydroxy-6-(hydroxymethyl)tetrahydropyran-2-yl]ethynyl]-1H-indazole-5-carboxamide] | 50 ± 7 nM
OC[C@H]1O[C@H](C#Cc2cccc3c2NCC3)[C@@H](O)[C@@H](O)[C@@H]1O [Compound 9, (2R,3S,4R,5S,6R)-2-(hydroxymethyl)-6-(2-indolin-7-ylethynyl)tetrahydropyran-3,4,5-triol] | 725 ± 155 nM
OC[C@H]1O[C@H](C#Cc2cc(-n3cc(-c4ccccc4)nn3)cc3cn[nH]c23)[C@@H](O)[C@@H](O)[C@@H]1O [Compound 66, (2R,3S,4R,5S,6R)-2-(hydroxymethyl)-6-[2-[5-(4-phenyltriazol-1-yl)-1H-indazol-7-yl]ethynyl]tetrahydropyran-3,4,5-triol] | 2 nM
CCCN(C)C(=O)c1cc(C#C[C@H]2O[C@H](CO)[C@@H](O)[C@H](O)[C@@H]2O)c2[nH]ncc2c1 [Compound 65, N-methyl-N-propyl-7-[2-[(2R,3S,4R,5S,6R)-3,4,5-trihydroxy-6-(hydroxymethyl)tetrahydropyran-2-yl]ethynyl]-1H-indazole-5-carboxamide] | 0.8 ± 0.1 nM
N#Cc1cc(C#C[C@H]2O[C@H](CO)[C@@H](O)[C@H](O)[C@@H]2O)c2nc[nH]c2c1 [Compound 5, 7-[2-[(2R,3S,4R,5S,6R)-3,4,5-trihydroxy-6-(hydroxymethyl)tetrahydropyran-2-yl]ethynyl]-3H-benzimidazole-5-carbonitrile] | 20 ± 2 nM
OC[C@H]1O[C@H](C#Cc2cc(C#CC3CC3)cc3cn[nH]c23)[C@@H](O)[C@@H](O)[C@@H]1O [Compound 43, (2R,3S,4R,5S,6R)-2-[2-[5-(2-cyclopropylethynyl)-1H-indazol-7-yl]ethynyl]-6-(hydroxymethyl)tetrahydropyran-3,4,5-triol] | 2 ± 1 nM
Cc1cc(F)ccc1-c1cc(C#C[C@H]2O[C@H](CO)[C@@H](O)[C@H](O)[C@@H]2O)c2[nH]ncc2c1 [Compound 94, (2R,3S,4R,5S,6R)-2-[2-[5-(4-fluoro-2-methyl-phenyl)-1H-indazol-7-yl]ethynyl]-6-(hydroxymethyl)tetrahydropyran-3,4,5-triol] | 0.6 ± 0.3 nM
O=C(NC1CCCCC1)c1cc(C#C[C@H]2O[C@H](CO)[C@@H](O)[C@H](O)[C@@H]2O)c2[nH]ncc2c1 [Compound 63, N-cyclohexyl-7-[2-[(2R,3S,4R,5S,6R)-3,4,5-trihydroxy-6-(hydroxymethyl)tetrahydropyran-2-yl]ethynyl]-1H-indazole-5-carboxamide] | 26 ± 1 nM
O=C1Cc2cccc(C#C[C@H]3O[C@H](CO)[C@@H](O)[C@H](O)[C@@H]3O)c2N1 [Compound 11, 7-[2-[(2R,3S,4R,5S,6R)-3,4,5-trihydroxy-6-(hydroxymethyl)tetrahydropyran-2-yl]ethynyl]indolin-2-one] | 190 ± 75 nM
CN(C(=O)c1cc(C#C[C@H]2O[C@H](CO)[C@@H](O)[C@H](O)[C@@H]2O)c2[nH]ncc2c1)C1CCCCC1 [Compound 60, N-cyclohexyl-N-methyl-7-[2-[(2R,3S,4R,5S,6R)-3,4,5-trihydroxy-6-(hydroxymethyl)tetrahydropyran-2-yl]ethynyl]-1H-indazole-5-carboxamide] | 3 ± 2 nM
OC[C@H]1O[C@H](C#Cc2cc(-c3ccc4cc[nH]c4c3)cc3cn[nH]c23)[C@@H](O)[C@@H](O)[C@@H]1O [Compound 40, (2R,3S,4R,5S,6R)-2-(hydroxymethyl)-6-[2-[5-(1H-indol-6-yl)-1H-indazol-7-yl]ethynyl]tetrahydropyran-3,4,5-triol] | 1 ± 0.3 nM
O=[N+]([O-])c1ccc(-c2cc(C#C[C@H]3O[C@H](CO)[C@@H](O)[C@H](O)[C@@H]3O)c3[nH]ncc3c2)cc1 [Compound 28, (2R,3S,4R,5S,6R)-2-(hydroxymethyl)-6-[2-[5-(4-nitrophenyl)-1H-indazol-7-yl]ethynyl]tetrahydropyran-3,4,5-triol] | 0.6 ± 0.4 nM
COc1ccc(-c2cc(C#C[C@H]3O[C@H](CO)[C@@H](O)[C@H](O)[C@@H]3O)c3[nH]ncc3c2)cc1 [Compound 30, (2R,3S,4R,5S,6R)-2-(hydroxymethyl)-6-[2-[5-(4-methoxyphenyl)-1H-indazol-7-yl]ethynyl]tetrahydropyran-3,4,5-triol] | 0.5 ± 0.2 nM
OC[C@H]1O[C@H](C#Cc2cc(C#Cc3cccnc3)cc3cn[nH]c23)[C@@H](O)[C@@H](O)[C@@H]1O [Compound 46, (2R,3S,4R,5S,6R)-2-(hydroxymethyl)-6-[2-[5-[2-(3-pyridyl)ethynyl]-1H-indazol-7-yl]ethynyl]tetrahydropyran-3,4,5-triol] | 3 ± 1 nM
OC[C@H]1O[C@H](C#Cc2cccc3ncoc23)[C@@H](O)[C@@H](O)[C@@H]1O [Compound 10, (2R,3S,4R,5S,6R)-2-[2-(1,3-benzoxazol-7-yl)ethynyl]-6-(hydroxymethyl)tetrahydropyran-3,4,5-triol] | 217 ± 133 nM
OC[C@H]1O[C@H](C#Cc2cccc3[nH]ncc23)[C@@H](O)[C@@H](O)[C@@H]1O [Compound 3, (2R,3S,4R,5S,6R)-2-(hydroxymethyl)-6-[2-(1H-indazol-4-yl)ethynyl]tetrahydropyran-3,4,5-triol] | 110 ± 10 nM
CN(C)C(=O)c1cc(C#C[C@H]2O[C@H](CO)[C@@H](O)[C@H](O)[C@@H]2O)c2[nH]ncc2c1 [Compound 59, N,N-dimethyl-7-[2-[(2R,3S,4R,5S,6R)-3,4,5-trihydroxy-6-(hydroxymethyl)tetrahydropyran-2-yl]ethynyl]-1H-indazole-5-carboxamide] | 0.4 ± 0.2 nM
